Assay results: patent publication US20250213533A1 (GH RESEARCH IRELAND LIMITED, priority 2022, published 2025)

Columns and labels:
[1] = Pharmacokinetics of 5-MeO-DMT and bufotenine after inhalation of 5-MeO-DMT in subjects; type: in vivo, human
5-HT1A receptors = target: T1, 5-HT1A receptors (Homo sapiens, UniProt P08908); assay: Radioligand binding ([3H]8-OH-DPAT) to 5-HT1A receptors in post-mortem human hippocampus membranes
T1 construct: 5-HT1A and 5-HT2A receptors in post-mortem human brain tissue from the hippocampus and frontal cortex, respectively; tissue Edinburgh Sudden Death Brain Bank; host or cells: post-mortem human hippocampus membranes
T1 sequence (P08908 1-422): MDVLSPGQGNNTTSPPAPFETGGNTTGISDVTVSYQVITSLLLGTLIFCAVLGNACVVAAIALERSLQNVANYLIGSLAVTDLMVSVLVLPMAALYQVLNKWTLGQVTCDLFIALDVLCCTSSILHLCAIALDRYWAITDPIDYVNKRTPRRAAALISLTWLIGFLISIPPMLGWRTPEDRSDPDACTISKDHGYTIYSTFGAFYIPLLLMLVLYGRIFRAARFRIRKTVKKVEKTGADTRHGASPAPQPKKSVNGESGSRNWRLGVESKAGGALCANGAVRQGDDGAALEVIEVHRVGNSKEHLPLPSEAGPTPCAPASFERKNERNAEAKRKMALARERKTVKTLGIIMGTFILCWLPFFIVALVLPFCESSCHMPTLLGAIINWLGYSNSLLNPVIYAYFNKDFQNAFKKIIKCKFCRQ

5-HT2A receptors = target: T2, 5-HT2A receptors (Homo sapiens, UniProt P28223); assay: Radioligand binding ([3H]MDL-100,907) to 5-HT2A receptors in post-mortem human frontal cortex membranes
T2 construct: 5-HT1A and 5-HT2A receptors in post-mortem human brain tissue from the hippocampus and frontal cortex, respectively; tissue Edinburgh Sudden Death Brain Bank; host or cells: post-mortem human frontal cortex membranes
T2 sequence (P28223 whole entry): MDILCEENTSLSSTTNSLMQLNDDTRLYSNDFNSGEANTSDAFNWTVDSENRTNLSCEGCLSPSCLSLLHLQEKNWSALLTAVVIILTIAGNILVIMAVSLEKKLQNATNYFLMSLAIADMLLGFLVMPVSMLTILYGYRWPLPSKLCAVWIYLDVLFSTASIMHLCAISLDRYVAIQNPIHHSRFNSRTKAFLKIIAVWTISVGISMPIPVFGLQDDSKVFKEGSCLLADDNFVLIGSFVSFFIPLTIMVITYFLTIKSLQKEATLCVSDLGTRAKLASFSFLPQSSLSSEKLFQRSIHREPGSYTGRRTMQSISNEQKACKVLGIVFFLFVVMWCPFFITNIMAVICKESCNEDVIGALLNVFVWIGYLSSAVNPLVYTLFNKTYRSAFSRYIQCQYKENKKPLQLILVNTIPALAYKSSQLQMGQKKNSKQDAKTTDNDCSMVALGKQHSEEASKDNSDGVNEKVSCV

Compound | bufotenine blood concentration above LLOQ (25 pg/ml) ([1]; metabolite after inhaled 5-MeO-DMT) | bufotenine observations when uptitration subjects were included ([1]; uptitration scheme) | affinity for 5-HT1A receptors (in words) (5-HT1A receptors) | affinity for 5-HT2A receptors (in words) (5-HT2A receptors)
CN(C)CCc1c[nH]c2ccc(O)cc12 [bufotenine] | Only in few samples | Substantially similar observations | – | –
CN(C)CCc1c[nH]c2ccccc12 [DMT, N,N-dimethyltryptamine] | – | – | moderate affinity | comparatively weak affinity
CN(C)CCc1c[nH]c2cccc(O)c12 [psilocin] | – | – | moderate affinity | moderate/strong affinity
